{
  "source": "patent US9944645B2",
  "about": "“Imidazotriazines and imidazopyrimidines as kinase inhibitors” (Incyte Holdings Corporation, priority 2006, dated 2018)",
  "data": [
    {"target": "c-Met kinase (h-Met; histidine-tagged c-Met catalytic domain fusion protein) (Homo sapiens (Human), UniProt P08581)", "sequence (P08581 1078-1345)": "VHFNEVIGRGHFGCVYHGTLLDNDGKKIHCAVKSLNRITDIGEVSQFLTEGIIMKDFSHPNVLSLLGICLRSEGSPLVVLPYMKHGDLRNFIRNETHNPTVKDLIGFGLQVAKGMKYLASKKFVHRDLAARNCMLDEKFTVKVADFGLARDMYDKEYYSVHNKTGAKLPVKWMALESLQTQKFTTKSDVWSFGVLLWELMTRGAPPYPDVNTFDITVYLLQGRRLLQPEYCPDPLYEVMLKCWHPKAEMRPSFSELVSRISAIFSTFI", "assay": "In Vitro c-Met Kinase Enzyme Assays", "format": "biochemical", "conditions": "phosphorylation of poly Glu-Tyr, 5 μM ATP, 25 minutes at 30° C.", "summary_of_the_method": "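His-tagged c-Met catalytic domain reacted 25 min at 30° C, within the linear initial-rate range. Phosphotyrosine detected by ELISA with peroxidase-labeled anti-phospho-tyrosine antibody and TMB, OD read at 450 nm (540 nm correction); IC50 from curve fit.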", "units": {"IC50": "nM"}, "values": [
      {"smiles": "CC(NC(=O)c1ccc(-c2cnc3ncc(C4(c5ccc6ncccc6c5)CC4)n3c2)cc1F)C(=O)N(C)C", "note": "(stereo not drawn) [Example 199, N-[2-(Dimethylamino)-1-methyl-2-oxoethyl]-2-fluoro-4-[3-(1-quinolin-6-ylcyclopropyl)imidazo[1,2-a]pyrimidin-6-yl]benzamide]", "IC50": "< 500"},
      {"smiles": "CC(NC(=O)c1ccc(-c2cnc3ncc(C4(c5ccc6ncccc6c5)CC4)n3c2)cc1F)C(=O)N1CCC1", "note": "(stereo not drawn) [Example 200, N-(2-Azetidin-1-yl-1-methyl-2-oxoethyl)-2-fluoro-4-[3-(1-quinolin-6-ylcyclopropyl)imidazo[1,2-a]pyrimidin-6-yl]benzamide]", "IC50": "< 500"},
      {"smiles": "O=C(NCC1(O)CC1)c1ccc(-c2cnc3ncc(Cc4ccc5ncccc5c4)n3n2)cc1F", "note": "[Example 202, 2-Fluoro-N-[(1-hydroxycyclopropyl)methyl]-4-[7-(quinolin-6-ylmethyl)imidazo[1,2-b][1,2,4]triazin-2-yl]benzamide]", "IC50": "< 500"},
      {"smiles": "COC(=O)N1CCC(CC#N)(n2cc(-c3cnc4ncc(Cc5ccc6ncccc6c5)n4n3)cn2)CC1", "note": "[Example 203, Methyl 4-(cyanomethyl)-4-{4-[7-(quinolin-6-ylmethyl)imidazo[1,2-b][1,2,4]triazin-2-yl]-1H-pyrazol-1-yl}piperidine-1-carboxylate]", "IC50": "< 500"},
      {"smiles": "CCOC(=O)N1CCC(CC#N)(n2cc(-c3cnc4ncc(Cc5ccc6ncccc6c5)n4n3)cn2)CC1", "note": "[Example 204, Ethyl 4-(cyanomethyl)-4-{4-[7-(quinolin-6-ylmethyl)imidazo[1,2-b][1,2,4]triazin-2-yl]-1H-pyrazol-1-yl}piperidine-1-carboxylate]", "IC50": "< 500"},
      {"smiles": "CC(=O)N1CCC(CC#N)(n2cc(-c3cnc4ncc(Cc5ccc6ncccc6c5)n4n3)cn2)CC1", "note": "[Example 205, (1-Acetyl-4-{4-[7-(quinolin-6-ylmethyl)imidazo[1,2-b][1,2,4]triazin-2-yl]-1H-pyrazol-1-yl}piperidin-4-yl)acetonitrile]", "IC50": "< 500"}
    ]}
  ]
}
